Data from US20060116390A1, “Hepatitis c virus inhibitors” (priority 2003, published 2006).
pIC50: −log10 of the molar value. Where two headings read alike, the source gives them in different places.

Tested on: HCV proteins in Rep5.1 cells (replicon cell line)
Experiment: Inhibitory activity of HCV: cell-based ELISA in replicon cell line Rep5.1 (decrease of HCV proteins)
Design: species or system hepatitis C virus
Details: Hepatitis C virus, 72 h, Rep5.1 cells, 72 hours with drug
Description: In order to, screen and evaluate the anti-HCV therapeutic agents in cell level, the following experiments are carried out using a replicon cell line, Rep5.1 [Lohmann, et al., Replication of subgenomic hepatitis C virus RNAs in a hepatoma cell line. Science 285:110-113 (1999)].
Rep5.1 cells, the replicon cell line, are cultured in DMEM-10 containing 500 μg/ml of G418. The Rep5.1 cells in log phase are suspended by trypsin treatment, and 5000 cells are distributed to each well of a 96-well plate. After 4 hours when the cells are attached to the plate, the serially diluted drug is added to each well. After 48 hours, a part of the treated cells are observed by microscope, and MTT assay is carried out to evaluate the drug toxicity. The cytotoxicity is estimated in percentage based on the control containing no drug. After 72 hours, the remaining cells are fixed by methanol/acetone (50/50, v/v), and the decrease of HCV proteins is measured by using HCV antibody. The extent of decrease is estimated in percentage based on the control containing no drug, and the concentration of drug at which 50% of proteins is decreased is determined to be IC50. The compounds showing activity via this procedure are validated by Western blotting. In order to find out whether the decrease of HCV protein is related to the decrease of replicon RNA, Rep5.1 cell is treated with some selected drugs for 72 hours, RNA is purified, dot blotted, and hybridized with isotope labelled nucleic acid to determine the amounts of actin mRNA and replicon RNA, and finally the amount of RNA is compared.
Plasma samples from 300 persons positive to the hepatitis C antibody test were screened by antibody diagnosis kit produced by LG life Sciences Ltd. (LG HCD3.0 TMB) to select 40 plasma samples having high titer. Replicon cell line and Huh-7 cell line each were cultured in a 96-well cell culture plate, fixed by methanol/acetone (1:1) mixture, and blocked by 3% skimmed milk. The 40 plasma sanples selected above were 100-fold diluted and aided thereto, and the bound antibodies were probed by anti-Human goat antibody (Sigma) to which Horse Radish Peroxidase is attached. As a result, 12 plasma samples having low specificity to Huh-7 cell line, but high specificity to replicon cell line were obtained. These plasma samples were used in the following cell-based ELISA.
Rep5.1 cells were cultured in DMEM-10 containing 500 μg/ml of G418. The Rep5.1 cells in log phase were suspended by trypsin treatment, and 5000 cells were distributed to each well of a 96-well pate. After 4 hours for which the cells were attached to the plate, the serially diluted drug was added to each well. After 72 hours, the cells were fixed by methanol/acetone (50/50, v/v), and the decrease of HCV proteins was measured by using HCV antibody obtained as above. The extent of decrease was estimated in percentage based on the control containing no drug, and the concentration of drug at which 50% of proteins was decreased was determined to be IC50.

[1] = concentration at which 50% of HCV proteins was decreased, Table 2, read-out: IC50
[2] = decrease of HCV proteins measured by HCV antibody, Table 1, read-out: Level (IC50 values classified)

CC1=C(C(=O)OCc2ccc3ncsc3c2)CNC(=S)N1 [Compound 248, 6-methyl-2-thioxo-1,2,3,4-tetrahydro-pyrimidine-5-carboxylic acid benzothiazol-6-ylmethyl ester]
pIC50 [1]: 5.30 | pIC50 [2]: 5.00 to 6.00

CCCCc1ccc(COC(=O)C2=C(C)NC(=S)NC2)cc1 [Compound 51, 6-methyl-2-thioxo-1,2,3,4-tetrahydro-pyrimidine-5-carboxylic acid 4-butyl-benzyl ester]
pIC50 [1]: > 6.30 | pIC50 [2]: > 6.00

CC1=C(C(=O)OCc2cc(C(F)(F)F)cc(C(F)(F)F)c2)CNC(=S)N1 [Compound 148, 6-methyl-2-thioxo-1,2,3,4-tetrahydro-pyrimidine-5-carboxylic acid 3,5-bis-trifluoromethyl-benzyl ester]
pIC50 [1]: > 6.40 | pIC50 [2]: > 6.00

CC1=C(C(=O)OCCc2cccc(Cl)c2)C(COC(=O)OCC2COC(=O)O2)NC(=S)N1 (centres unmarked) [88″, 6-methyl-4-(2-oxo-[1,3]dioxolan-4-ylmethoxycarbonyloxymethyl)-2-thioxo-1,2,3,4-tetrahydro-pyrimidine-5-carboxylic acid 2-(3-chloro-phenyl)-ethyl ester]
pIC50 [1]: 6.05 | pIC50 [2]: > 6.00

CC1=C(C(=O)OCc2ccc([N+](=O)[O-])cc2)CNC(=S)N1 [Compound 7, 6-methyl-2-thioxo-1,2,3,4-tetrahydro-pyrimidine-5-carboxylic acid 4-nitro-benzyl ester]
pIC50 [1]: 5.60 | pIC50 [2]: 5.00 to 6.00

CCNC(=O)OCC1NC(=S)NC(C)=C1C(=O)OCCCc1cccs1 (centres unmarked) [20″, 4-ethylcarbamoyloxymethyl-6-methyl-2-thioxo-1,2,3,4-tetrahydro-pyrimidine-5-carboxylic acid 3-thiophen-2-yl-propyl ester]
pIC50 [1]: 4.48 | pIC50 [2]: < 4.70

COc1ccc(CCCOC(=O)C2=C(C)NC(=S)NC2)cc1 [Compound 88, 6-methyl-2-thioxo-1,2,3,4-tetrahydro-pyrimidine-5-carboxylic acid 3-(4-methoxy-phenyl)-propyl ester]
pIC50 [1]: 6.15 | pIC50 [2]: > 6.00

COc1ccc(COC(=O)C2=C(C)NC(=S)NC2)c(OC)c1C [Compound 137, 6-methyl-2-thioxo-1,2,3,4-tetrahydro-pyrimidine-5-carboxylic acid 2,4-dimethoxy-3-methyl-benzyl ester]
pIC50 [1]: 5.00 | pIC50 [2]: 5.00 to 6.00

CC1=C(C(=O)OCCCCc2ccsc2)C(CF)NC(=S)N1 (centres unmarked) [61′, 4-fluoromethyl-6-methyl-2-thioxo-1,2,3,4-tetrahydro-pyrimidine-5-carboxylic acid 4-thiophen-3-yl-butyl ester]
pIC50 [1]: 5.52 | pIC50 [2]: 5.00 to 6.00

CC1=C(C(=O)OCCC2CCc3ccccc32)CNC(=S)N1 (centres unmarked) [Compound 126, 6-methyl-2-thioxo-1,2,3,4-tetrahydro-pyrimidine-5-carboxylic acid 2-indan-1-yl-ethyl ester]
pIC50 [1]: > 6.40 | pIC50 [2]: > 6.00

COc1cc(COC(=O)C2=C(C)NC(=S)NC2)cc(Br)c1OC [Compound 178, 6-methyl-2-thioxo-1,2,3,4-tetrahydro-pyrimidine-5-carboxylic acid 3-bromo-4,5-dimethoxy-benzyl ester]
pIC50 [1]: 5.82 | pIC50 [2]: 5.00 to 6.00

CC1=C(C(=O)OCc2ccccc2Cl)CNC(=S)N1 [Compound 84, 6-methyl-2-thioxo-1,2,3,4-tetrahydro-pyrimidine-5-carboxylic acid 2-chloro-benzyl ester]
pIC50 [1]: > 6.40 | pIC50 [2]: > 6.00

CC1=C(C(=O)OCCCc2ccccc2)CNC(=S)N1 [Compound 14, 6-methyl-2-thioxo-1,2,3,4-tetrahydro-pyrimidine-5-carboxylic acid 3-phenyl-propyl ester]
pIC50 [1]: 6.70 | pIC50 [2]: > 6.00

CC1=C(C(=O)OCC2CCOC2)CNC(=S)N1 (centres unmarked) [Compound 162, 6-methyl-2-thioxo-1,2,3,4-tetrahydro-pyrimidine-5-carboxylic acid tetrahydrofuran-3-ylmethyl ester]
pIC50 [1]: < 4.00 | pIC50 [2]: < 4.70

CSc1ccc(CCOC(=O)C2=C(C)NC(=S)NC2CO)cc1 (centres unmarked) [45″, 4-hydroxymethyl-6-methyl-2-thioxo-1,2,3,4-tetrahydro-pyrimidine-5-carboxylic acid 2-(4-methylsulfanyl-phenyl)-ethyl ester]
pIC50 [1]: 5.57 | pIC50 [2]: 5.00 to 6.00

CC1=C(C(=O)OCCc2c(F)cccc2F)C(CO)NC(=S)N1 (centres unmarked) [39″, 4-hydroxymethyl-6-methyl-2-thioxo-1,2,3,4-tetrahydro-pyrimidine-5-carboxylic acid 2-(2,6-difluoro-phenyl)-ethyl ester]
pIC50 [1]: 4.70 | pIC50 [2]: 4.70 to 5.00

CC1=C(C(=O)OCc2cc(F)c(F)c(F)c2)C(CF)NC(=S)N1 (centres unmarked) [91′, 4-fluoromethyl-6-methyl-2-thioxo-1,2,3,4-tetrahydro-pyrimidine-5-carboxylic acid 3,4,5-trifluoro-benzyl ester]
pIC50 [1]: 5.80 | pIC50 [2]: 5.00 to 6.00

CC1=C(C(=O)OCCc2ccc(C)c(F)c2)C(CO)NC(=S)N1 (centres unmarked) [55″, 4-hydroxymethyl-6-methyl-2-thioxo-1,2,3,4-tetrahydro-pyrimidine-5-carboxylic acid 2-(3-fluoro-4-methyl-phenyl)-ethyl ester]
pIC50 [1]: 6.30 | pIC50 [2]: > 6.00

CCOC(=O)COC(=O)OCC1NC(=S)NC(C)=C1C(=O)OCCc1cccc([N+](=O)[O-])c1 (centres unmarked) [83″, 4-ethoxycarbonylmethoxycarbonyloxymethyl-6-methyl-2-thioxo-1,2,3,4-tetrahydro-pyrimidine-5-carboxylic acid 2-(3-nitro-phenyl)-ethyl ester]
pIC50 [1]: 5.21 | pIC50 [2]: 5.00 to 6.00

CC1=C(C(=O)OC2CCCCC2)CNC(=S)N1 [Compound 37, 6-methyl-2-thioxo-1,2,3,4-tetrahydro-pyrimidine-5-carboxylic acid cyclohexyl ester]
pIC50 [1]: 5.40 | pIC50 [2]: 5.00 to 6.00

CC1=C(C(=O)OCCc2ccc(N(C)CC3CC3)c([N+](=O)[O-])c2)C(CO)NC(=S)N1 (centres unmarked) [98″, 4-Hydroxymethyl-6-methyl-2-thioxo-1,2,3,4-tetrahydro-pyrimidine-5-carboxylic acid 2-[4-(cyclopropylmethyl-methyl-amino)-3-nitro-phenyl]-ethyl ester]
pIC50 [1]: 6.00 | pIC50 [2]: > 6.00

COC(=O)c1ccc(COC(=O)C2=C(C)NC(=S)NC2)cc1 [Compound 11, 6-methyl-2-thioxo-1,2,3,4-tetrahydro-pyrimidine-5-carboxylic acid 4-methoxycarbonyl-benzyl ester]
pIC50 [1]: < 4.00 | pIC50 [2]: < 4.70

CC1=C(C(=O)OCc2scc(C)c2Cl)CNC(=S)N1 [Compound 207, 6-methyl-2-thioxo-1,2,3,4-tetrahydro-pyrimidine-5-carboxylic acid 3-chloro-4-methyl-thiophen-2-ylmethyl ester]
pIC50 [1]: 6.52 | pIC50 [2]: > 6.00

CC1=C(C(=O)OCCCc2ccccc2)C(CO)NC(=S)N1 (centres unmarked) [14″, 4-hydroxymethyl-6-methyl-2-thioxo-1,2,3,4-tetrahydro-pyrimidine-5-carboxylic acid 3-phenyl-propyl ester]
pIC50 [1]: 5.59 | pIC50 [2]: 5.00 to 6.00

CC1=C(C(=O)OCCc2ccc(F)c(F)c2)C(CO)NC(=S)N1 (centres unmarked) [68″, 4-hydroxymethyl-6-methyl-2-thioxo-1,2,3,4-tetrahydro-pyrimidine-5-carboxylic acid 2-(3,4-difluoro-phenyl)-ethyl ester]
pIC50 [1]: 5.57 | pIC50 [2]: 5.00 to 6.00
